Where two headings read alike, the source gives them in different places.
Target: T1, G protein-coupled receptor 119 (GPR-119) (Mesocricetus auratus, UniProt A0A1U8CD06)
T1 construct: hamster-derived β-cells containing G protein-coupled receptor 119 (GPR-119), HIT-T15 cells; host or cells: HIT-T15 (hamster pancreatic β-cells)
T1 sequence (A0A1U8CD06 1-334): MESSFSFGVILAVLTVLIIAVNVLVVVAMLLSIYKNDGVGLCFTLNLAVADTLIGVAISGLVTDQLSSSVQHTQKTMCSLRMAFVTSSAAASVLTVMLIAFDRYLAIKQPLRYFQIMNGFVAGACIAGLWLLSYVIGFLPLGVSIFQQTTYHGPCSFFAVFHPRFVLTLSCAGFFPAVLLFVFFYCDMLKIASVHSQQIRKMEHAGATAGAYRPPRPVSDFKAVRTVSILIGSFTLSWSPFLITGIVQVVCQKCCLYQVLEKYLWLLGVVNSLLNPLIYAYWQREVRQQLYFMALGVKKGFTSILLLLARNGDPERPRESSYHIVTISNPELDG
Assay: Evaluation of cAMP activity in HIT-T15 cells (HTRF cAMP dynamic kit)
Assay type: cell-based, hamster
Conditions: cAMP activation
Procedure, shortened: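 HIT-T15 cells, 60,000/well, treated next day with compound at six concentrations ([…]) for 1 h at 37° C. Lysate cAMP quantified by HTRF competitive immunoassay (D2-cAMP, cryptate anti-cAMP); activity taken as change in FRET signal relative to DMSO.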

[1] = 1 h at 37° C., six concentrations, read-out: EC50

SMILES	EC50 [1] [nM]	EC50 (read-out: EC50 value) [nM]	EC50 (EC50 (nM), 1 h at 37° C., six concentrations) [nM]	EC50 (EC50 value) [nM]
CC(C)c1noc(N2CCC(COc3ccc(C4=CCC(C(=O)N5CC[C@@H](F)C5)CC4)cc3)CC2)n1 (stereo partly drawn) [Example 54, ((R)-3-fluoropyrrolidin-1-yl)(4-(4-((1-(3-isopropyl-1,2,4-oxadiazol-5-yl)piperidin-4-yl)methoxy)phenyl)cyclohex-3-enyl)methanone]	42	≤ 50	–	–
C[C@@H](CO)NC(=O)C1CC=C(c2ccc(OCC3CCN(C(=O)OC(C)(C)C)CC3)cn2)CC1 (stereo partly drawn) [Example 11, tert-butyl 4-((6-(4-((S)-1-hydroxypropan-2-ylcarbamoyl)cyclohex-1-enyl)pyridin-3-yloxy)methyl)piperidine-1-carboxylate]	110	–	–	–
CC(C)c1noc(N2CCC(COc3ccc(C4=CCC(C(=O)NCC(C)(C)CO)CC4)nc3)CC2)n1 (stereo not drawn) [Example 47, N-(3-hydroxy-2,2-dimethylpropyl)-4-(5-((1-(3-isopropyl-1,2,4-oxadiazol-5-yl)piperidin-4-yl)methoxy)pyridin-2-yl)cyclohex-3-enecarboxamide]	150	–	–	–
CC(C)c1noc(N2CCC(COc3ccc(C4=CCC(C(=O)N5CCC(=NO)CC5)CC4)cc3)CC2)n1 (stereo not drawn) [Example 276, (4-(hydroxyimino)piperidin-1-yl)(4-(4-((1-(3-isopropyl-1,2,4-oxadiazol-5-yl)piperidin-4-yl)methoxy)phenyl)cyclohex-3-enyl)methanone]	29	–	–	–
CC(C)(C)OC(=O)N1CCC(COc2ccc(C3=CCC(C(=O)NC4CC4)CC3)cc2)CC1 (stereo not drawn) [Example 2, tert-butyl 4-((4-(4-(cyclopropylcarbamoyl)cyclohex-1-enyl)phenoxy)methyl)piperidine-1-carboxylate]	40	≤ 50	–	–
CCc1cnc(N2CCC(COc3ccc(C4=CCC(C(=O)NCCF)CC4)cc3)CC2)nc1 (stereo not drawn) [Example 104, 4-(4-((1-(5-ethylpyrimidin-2-yl)piperidin-4-yl)methoxy)phenyl)-N-(2-fluoroethyl)cyclohex-3-enecarboxamide]	70	–	–	–
CCc1cnc(N2CCC(COc3ccc(C4=CCC(C(=O)N(C)CCCO)CC4)cc3)CC2)nc1 (stereo not drawn) [Example 242, 4-(4-((1-(5-ethylpyrimidin-2-yl)piperidin-4-yl)methoxy)phenyl)-N-(3-hydroxypropyl)-N-methylcyclohex-3-enecarboxamide]	21	≤ 50	–	–
CC(C)c1noc(N2CCC(COc3ccc(C4=CCC(C(=O)N5CCC(O)CC5)CC4)cc3)CC2)n1 (stereo not drawn) [Example 182, (4-hydroxypiperidin-1-yl)(4-(4-((1-(3-isopropyl-1,2,4-oxadiazol-5-yl)piperidin-4-yl)methoxy)phenyl)cyclohex-3-enyl)methanone]	27	≤ 50	–	–
CC(C)(C)OC(=O)N1CCC(COc2ccc(C3=CCC(C(=O)N4CC=CC4)CC3)cc2)CC1 (stereo not drawn) [Example 224, tert-butyl 4-((4-(4-(2,5-dihydro-1H-pyrrole-1-carbonyl)cyclohex-1-enyl)phenoxy)methyl)piperidine-1-carboxylate]	38	≤ 50	–	–
CC(C)(C)OC(=O)N1CCC(COc2ccc(C3=CCC(C(=O)N4CCC(=O)CC4)CC3)cc2)CC1 (stereo not drawn) [Example 272, tert-butyl 4-((4-(4-(4-oxopiperidine-1-carbonyl)cyclohex-1-enyl)phenoxy)methyl)piperidine-1-carboxylate]	–	–	33	≤ 50
CCc1cnc(N2CCC(COc3ccc(C4=CCC(C(=O)NC[C@@H](C)O)CC4)cc3)CC2)nc1 (stereo partly drawn) [Example 30, 4-(4-((1-(5-ethylpyrimidin-2-yl)piperidin-4-yl)methoxy)phenyl)-N-((R)-2-hydroxypropyl)cyclohex-3-enecarboxamide]	105	–	–	–
CCc1cnc(N2CCC(COc3ccc(C4=CCC(C(=O)N5CCN(CC6CC6)CC5)CC4)cc3)CC2)nc1 (stereo not drawn) [Example 124, (4-(cyclopropylmethyl)piperazin-1-yl)(4-(4-((1-(5-ethylpyrimidin-2-yl)piperidin-4-yl)methoxy)phenyl)cyclohex-3-enyl)methanone]	100	–	–	–
